Reference: US20220184071A1, “GEPOTIDACIN FOR USE IN THE TREATMENT OF BACTERIAL URINARY TRACT INFECTIONS” (GlaxoSmithKline Intellectual Property Development Limited, priority 2019, published 2022)

How the values were obtained:
[1] = MIC, conclusion to Example 1 Methods 1 and 2; assay type: cell-based; conditions: at least one strain of every organism listed
Protocol: Antimicrobial activity was determined by broth microdilution using the CLSI recommended procedure.
Antimicrobial activity was determined in a second study by […] using the CLSI recommended procedure in serial two-fold dilutions and the minimum inhibitory concentration (MIC) was determined as the lowest concentration of the compound that inhibited visible growth.

[2] = Phase IIa clinical efficacy (ITT population); assay type: in vivo, human
Protocol: This phase IIa single center study evaluated the safety, tolerability, pharmacokinetics, and efficacy of oral gepotidacin 1500 mg BID for 5 days in female subjects with acute cystitis. Clean catch mid-stream urine specimens were obtained for quantitative culture by standard methods. Urine samples were taken from all participants pre-treatment (baseline) and at all post-baseline visits. All urine samples were sent to a central laboratory (PPD Global Clinical Laboratories, Highland Heights, Ky., USA) for Gram stain, quantitative culture, pathogen identification and susceptibility testing. See FIG. 1 for participant disposition and study outline.
Serial blood and urine PK sampling were performed for the first dose of study treatment on Day 1 and for the time-matched dose on Day 4. Participants took all doses of gepotidacin with food and remained in the clinic to complete a total of 10 doses. Participants were instructed to return for the TOC (Day 10 to 13) and Follow-up (Day 28±3) Visits.
The mean total clinical symptom score in the ITT Population at Baseline was 7.9 (range: 4 to 12) for 4 categories of acute cystitis symptoms consisting of dysuria, frequency, urgency, and lower abdominal or suprapubic pain (score range for each category was 0 to 3). Of the 22 participants enrolled in this Phase IIa study, 19 (86%) and 18 participants (82%) achieved a clinical response of clinical success at the TOC and Follow-up Visits, respectively. […] Lower abdominal or suprapubic pain at Baseline was the most variable symptom category with half of the participants reporting low scores of 0 (27%) or 1 (23%) and the other half of participants reporting high scores of 2 (41%) or 3 (9%). For the other symptom categories, the majority of participants scored a 2.

E. coli = experiment: Neutropenic mouse thigh infection model PK/PD; assay type: in vivo
Protocol: (§1) PK and PD studies using gepotidacin were conducted in murine (male CD-1 mice) thigh and kidney infections. The administered doses ranged from 1 to 200 mg/kg SC every 6 hours starting 1h post infection. Infected tissues were evaluated for bacterial burden at 24 h post infection (baseline controls at 1 h post infection).
(§2) Efficacy was determined against E. coli ALL, 997577, ATCC25922, IR5 and NCTC13441 (MICs of 1 to 4 μg/mL) in thigh-infected neutropenic (I−) mice and against E. coli ALL in kidney-infected immunocompetent (I+) and I− mice. The PopPK model was used to determine GEP exposures associated with efficacy. PK-PD analyses were conducted using Phoenix WinNonLin 6.3 (Pharsight). The change in login colony forming units (CFU) from baseline were correlated with free drug (f) AUC:MIC using an inhibitory model from the Phoenix library, and model parameter values for each isolate were used to calculate the plasma fAUC:MIC associated with stasis, 1- or 2-login reductions in CFU.
(§3) PD studies were conducted using thigh and/or kidney infection models in neutropenic or competent mice (N=5/group). Mice were infected with a bacterial suspension in log phase: 100 μL in the left thigh muscle or 50 μL in each of both kidneys (100 μl total). Final inocula across all isolates were 6.0 to 7.0 login CFU/mouse. Dose-ranging studies were conducted with 5 isolates (see Table 1). Starting 1 hr after infection, GEP was given SC (0.2 mL/mouse) at discrete doses of 1-200 mg/kg every 6 hours (q6) for a 24-hour period (4 doses in total). Mice were euthanized 24 hr after start of therapy (6 hr after the last dose), and infected thighs or kidneys were processed to determine viable bacterial counts (CFU). Baseline CFU were obtained from untreated mice at 1 hr post infection and growth control CFU from saline-treated mice at 24 hr.
(§4) NCA analyses were conducted with the simulated data.
(§5) PK-PD analysis was conducted using Phoenix WinNonLin 6.3 (Pharsight): • Log10 colony forming units (CFU) from each group were correlated with PK-PD parameters using several inhibitory models from the Phoenix library. • Model parameter values for each isolate were used to calculate the PK-PD parameter value associated with stasis, 1-log or 2-log reductions from baseline 1 h controls.

E. coli ALL = experiment: Immunocompetent mouse kidney infection (pyelonephritis/UTI) model PK/PD; assay type: in vivo
Protocol: as §1, §2, §3, §4, §5

Bacteroides caccae = experiment: MIC by broth microdilution, drug-resistant isolates; assay type: cell-based; conditions: 1 isolate
Protocol: (§6) Additional analysis was performed from the results of the study described in Method 1 above, to determine the in vitro activity of gepotidacin against gram-negative and gram-positive anaerobic organisms with resistance to ceftriaxone, clindamycin, imipenem, metronidazole, moxifloxacin and piperacillin/tazobactam.

Bacteroides fragilis = experiment: as above; assay type: cell-based
Protocol: as §6

Bacteroides spp = experiment: as above; assay type: cell-based
Protocol: as §6

Bacteroides stercoris = experiment: as above; assay type: cell-based; conditions: ceftriaxone R, 2 isolates
Protocol: as §6

[3] = test system: Bacteroides thetaiotaomicron; experiment: as above; assay type: cell-based
Protocol: as §6

[4] = 5 E. coli isolates, listed as Gepotidacin

O=c1ccc2ncc(=O)n3c2n1C[C@H]3CN1CCC(NCc2cc3c(cn2)OCCC3)CC1 [gepotidacin, (2R)-2-({4-[(3,4-dihydro-2H-pyrano[2,3-c]pyridin-6-ylmethyl)amino]-1-piperidinyl}methyl)-1,2-dihydro-3H,8H-2a,5,8a-triazaacenaphthylene-3,8-dione]
MIC [1]: ≤ 8 µg/mL | participants with clinical response of clinical success ([2]; TOC Visit, 22 participants): 19 (86%) | participants with symptom resolution ([2]; at Follow-up): 20 participants | participants with symptom resolution (clinical signs and symptom score of 0) ([2]; at TOC): 19 participants | time to significant improvement of clinical symptoms (all subjects) ([2]; dysuria, frequency, urgency, lower abdominal pain): 24 to 48 h | Median daily plasma fAUC/MIC for 1-log Drop (E. coli; 5 E. coli isolates): 16 | Median daily plasma fAUC/MIC for 2-log Drop (E. coli; 5 E. coli isolates): 25 | Median daily plasma fAUC/MIC for stasis (E. coli; 5 E. coli isolates): 11 | range of plasma fAUC:MIC ratios for 1-log10 reduction in CFU (E. coli; 5 E. coli isolates): 4-25 | range of plasma fAUC:MIC ratios for 2-log10 reduction in CFU (E. coli; 5 E. coli isolates): 7-40 | range of plasma fAUC:MIC ratios for stasis (E. coli; 5 E. coli isolates): 3-17 | Median daily plasma fAUC/MIC for 1-log Drop (E. coli; [4]): 16.0 | Median daily plasma fAUC/MIC for 2-log Drop (E. coli; [4]): 25.4 | Median daily plasma fAUC/MIC for stasis (E. coli; [4]): 10.6 | Daily fAUC/MIC for 1-log Drop, Mean ± SD (E. coli; 5 strains): 14.6 ± 9.0 | Daily fAUC/MIC for 2-log Drop, Mean ± SD (E. coli; 5 strains): 22.9 ± 12.8 | Daily fAUC/MIC for Stasis, Mean ± SD (E. coli; 5 strains): 9.9 ± 6.8 | Daily fAUC/MIC for 1-log Drop (E. coli; Strain 997577): 16.0 | Daily fAUC/MIC for 2-log Drop (E. coli; Strain 997577): 25.4 | Daily fAUC/MIC for Stasis (E. coli; Strain 997577): 10.6 | Daily fAUC/MIC for 1-log Drop (E. coli; Strain ALL, Neutropenic Thigh): 6.5 | Daily fAUC/MIC for 2-log Drop (E. coli; Strain ALL, Neutropenic Thigh): 13.8 | Daily fAUC/MIC for Stasis (E. coli; Strain ALL, Neutropenic Thigh): 3.0 | Daily fAUC/MIC for 1-log Drop (E. coli; Strain ATCC25922): 21.5 | Daily fAUC/MIC for 2-log Drop (E. coli; Strain ATCC25922): 27.6 | Daily fAUC/MIC for Stasis (E. coli; Strain ATCC25922): 16.8 | Daily fAUC/MIC for 1-log Drop (E. coli; Strain IR5): 4.3 | Daily fAUC/MIC for 2-log Drop (E. coli; Strain IR5): 7.2 | Daily fAUC/MIC for Stasis (E. coli; Strain IR5): 2.8 | Daily fAUC/MIC for 1-log Drop (E. coli; Strain NCTC13441): 24.9 | Daily fAUC/MIC for 2-log Drop (E. coli; Strain NCTC13441): 40.3 | Daily fAUC/MIC for Stasis (E. coli; Strain NCTC13441): 16.2 | Median plasma fAUC:MIC targets ranged (E. coli; stasis to 2-log10 reduction): 11 to 25 | PK-PD target (fAUC/MIC) in immunocompetent vs neutropenic mice (E. coli ALL; I+ (non-neutropenic) mice): reduced by approx. half | Daily fAUC/MIC for 1-log Drop (E. coli ALL; Strain ALL, Competent UTI): 3.3 | Daily fAUC/MIC for 2-log Drop (E. coli ALL; Strain ALL, Competent UTI): 8.1 | Daily fAUC/MIC for Stasis (E. coli ALL; Strain ALL, Competent UTI): 0.7 | Gepotidacin MIC range (Bacteroides caccae; ceftriaxone R): 0.25 µg/mL | Gepotidacin MIC range (Bacteroides caccae; clindamycin R): 4 µg/mL | Gepotidacin MIC range (Bacteroides caccae; moxifloxacin R): 0.25 µg/mL | Gepotidacin MIC range (Bacteroides fragilis; ceftriaxone R, 24 isolates): 0.25 to 16 µg/mL | Gepotidacin MIC range (Bacteroides fragilis; clindamycin R, 23 isolates): 0.06 to 16 µg/mL | Gepotidacin MIC range (Bacteroides fragilis; imipenem R, 2 isolates): 1 to 4 µg/mL | Gepotidacin MIC range (Bacteroides fragilis; moxifloxacin R, 20 isolates): 0.25 to 8 µg/mL | Gepotidacin MIC range (Bacteroides fragilis; pip/tazo R, 2 isolates): 1 to 4 µg/mL | Gepotidacin MIC range (Bacteroides spp; ceftriaxone R, 61 isolates): ≤0.015 to 6 µg/mL | Gepotidacin MIC range (Bacteroides spp; clindamycin R, 51 isolates): 0.06 to 16 µg/mL | Gepotidacin MIC range (Bacteroides spp; moxifloxacin R, 35 isolates): 0.25 to 8 µg/mL | Gepotidacin MIC range (Bacteroides stercoris): ≤0.015 to 0.5 µg/mL | Gepotidacin MIC range ([3]; ceftriaxone R, 20 isolates): 0.5 to 8 µg/mL | Gepotidacin MIC range ([3]; clindamycin R, 18 isolates): 0.5 to 8 µg/mL | Gepotidacin MIC range ([3]; moxifloxacin R, 7 isolates): 0.5 to 8 µg/mL
